Data taken from patent US12215140B2, “Method of stabilizing protein contained in specimen and solution for stabilizing protein contained in specimen” (EIKEN KAGAKU KABUSHIKI KAISHA, priority 2018, dated 2025).

Tested on: hemoglobin-haptoglobin complex
Assay: Stability of hemoglobin (as hemoglobin-haptoglobin complex) in samples preserved at 37° C. in preservation solution containing 1 unit/L haptoglobin, Hb measured by latex agglutination method (Examples 1 to 7)
Design: species or system human
Outline: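 Hemoglobin (~300 µg/L) in 0.5% fecal suspension, or without feces, held at 37 °C for 0–21 days in 40 mmol/L HEPES pH 6.8, 0.1% BSA, 0.1% NaN3, 1 unit/L haptoglobin, with 0–100 mmol/L phenylboronic acid ± sugars. Hb quantified by latex agglutination with anti-human Hb rabbit polyclonal; recovery (%) relative to day 0.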

[1] = Feces 1, phenylboronic acid 0.5 mmol/L, 37° C., 0 days
[2] = Feces 1, phenylboronic acid 0.5 mmol/L, 37° C., 7 days
[3] = Feces 1, phenylboronic acid 0.5 mmol/L, 37° C., 14 days
[4] = Feces 1, phenylboronic acid 0.5 mmol/L, 37° C., 21 days
[5] = Feces 1, phenylboronic acid 1 mmol/L, 37° C., 0 days
[6] = Feces 1, phenylboronic acid 1 mmol/L, 37° C., 14 days
[7] = Feces 1, phenylboronic acid 1 mmol/L, 37° C., 21 days
[8] = Feces 1, phenylboronic acid 15 mmol/L, 37° C., 0 days
[9] = Feces 1, phenylboronic acid 15 mmol/L, 37° C., 7 days
[10] = Feces 1, phenylboronic acid 15 mmol/L, 37° C., 14 days
[11] = Feces 1, phenylboronic acid 15 mmol/L, 37° C., 21 days
[12] = Feces 1, phenylboronic acid 50 mmol/L, 37° C., 0 days
[13] = Feces 1, phenylboronic acid 50 mmol/L, 37° C., 7 days
[14] = Feces 1, phenylboronic acid 50 mmol/L, 37° C., 14 days
[15] = Feces 1, phenylboronic acid 50 mmol/L, 37° C., 21 days
[16] = Feces 1, phenylboronic acid 100 mmol/L, 37° C., 0 days
[17] = Feces 1, phenylboronic acid 100 mmol/L, 37° C., 7 days
[18] = Feces 1, phenylboronic acid 100 mmol/L, 37° C., 14 days
[19] = Feces 1, phenylboronic acid 100 mmol/L, 37° C., 21 days
[20] = Feces 2, phenylboronic acid 0.5 mmol/L, 37° C., 0 days
[21] = Feces 2, phenylboronic acid 0.5 mmol/L, 37° C., 7 days
[22] = Feces 2, phenylboronic acid 0.5 mmol/L, 37° C., 14 days
[23] = Feces 2, phenylboronic acid 0.5 mmol/L, 37° C., 21 days
[24] = Feces 2, phenylboronic acid 1 mmol/L, 37° C., 7 days
[25] = Feces 2, phenylboronic acid 1 mmol/L, 37° C., 14 days
[26] = Feces 2, phenylboronic acid 1 mmol/L, 37° C., 21 days
[27] = Feces 2, phenylboronic acid 15 mmol/L, no sugar, 0 days at 37° C.
[28] = Feces 2, phenylboronic acid 15 mmol/L, no sugar, 7 days at 37° C.
[29] = Feces 2, phenylboronic acid 15 mmol/L, no sugar, 14 days at 37° C.
[30] = Feces 2, phenylboronic acid 15 mmol/L, no sugar, 21 days at 37° C.
[31] = Feces 2, phenylboronic acid 15 mmol/L, 37° C., 0 days
[32] = Feces 2, phenylboronic acid 15 mmol/L, 37° C., 7 days
[33] = Feces 2, phenylboronic acid 15 mmol/L, 37° C., 14 days
[34] = Feces 2, phenylboronic acid 15 mmol/L, 37° C., 21 days
[35] = Feces 2, phenylboronic acid 50 mmol/L, 37° C., 0 days
[36] = Feces 2, phenylboronic acid 50 mmol/L, 37° C., 7 days
[37] = Feces 2, phenylboronic acid 50 mmol/L, 37° C., 21 days
[38] = Feces 2, phenylboronic acid 100 mmol/L, 37° C., 0 days
[39] = Feces 2, phenylboronic acid 100 mmol/L, 37° C., 7 days
[40] = Feces 2, phenylboronic acid 100 mmol/L, 37° C., 14 days
[41] = Feces 2, phenylboronic acid 100 mmol/L, 37° C., 21 days

`OB(O)c1ccccc1` [phenylboronic acid] was tested, and the “recovery ratio of hemoglobin in the samples” value (Feces 1, Feces 2, Feces 3, phenylboronic acid at 0.5 mmol/L or more) was “improved”, the Hb concentration [1] was 279 µg/L and the “Recovery ratio with respect to Hb concentration after 0 days” value (shortened to “Recovery ratio … after 0 days”) [1] was 100%. The Hb concentration [2] was 181 µg/L, the “Recovery ratio … after 0 days” value [2] was 65% and the Hb concentration [3] was 147 µg/L. The “Recovery ratio … after 0 days” value [3] was 53%, the Hb concentration [4] was 129 µg/L and the “Recovery ratio … after 0 days” value [4] was 46%. For the same molecule, the Hb concentration [5] was 275 µg/L, the “Recovery ratio … after 0 days” value [5] was 100% and the “Recovery ratio … after 0 days” value (Feces 1, phenylboronic acid 1 mmol/L, 37° C., 7 days) was 66%. For the same molecule, the Hb concentration [6] was 148 µg/L, the “Recovery ratio … after 0 days” value [6] was 54% and the Hb concentration [7] was 125 µg/L. For the same molecule, the “Recovery ratio … after 0 days” value [7] was 45%, the Hb concentration [8] was 302 µg/L and the “Recovery ratio … after 0 days” value [8] was 100%. The Hb concentration [9] was 243 µg/L, the “Recovery ratio … after 0 days” value [9] was 80% and the Hb concentration [10] was 239 µg/L. The “Recovery ratio … after 0 days” value [10] was 79%, the Hb concentration [11] was 224 µg/L and the “Recovery ratio … after 0 days” value [11] was 74%. For the same molecule, the Hb concentration [12] was 290 µg/L, the “Recovery ratio … after 0 days” value [12] was 100% and the Hb concentration [13] was 230 µg/L. The “Recovery ratio … after 0 days” value [13] was 79%, the Hb concentration [14] was 204 µg/L and the “Recovery ratio … after 0 days” value [14] was 70%. The Hb concentration [15] was 185 µg/L, the “Recovery ratio … after 0 days” value [15] was 64% and the Hb concentration [16] was 271 µg/L. For the same molecule, the “Recovery ratio … after 0 days” value [16] was 100%, the Hb concentration [17] was 186 µg/L and the “Recovery ratio … after 0 days” value [17] was 69%. The Hb concentration [18] was 137 µg/L, the “Recovery ratio … after 0 days” value [18] was 51% and the Hb concentration [19] was 97 µg/L. For the same molecule, the “Recovery ratio … after 0 days” value [19] was 36%, the Hb concentration [20] was 271 µg/L and the “Recovery ratio … after 0 days” value [20] was 100%. The Hb concentration [21] was 147 µg/L, the “Recovery ratio … after 0 days” value [21] was 54% and the Hb concentration [22] was 113 µg/L. The “Recovery ratio … after 0 days” value [22] was 42%, the Hb concentration [23] was 91 µg/L and the “Recovery ratio … after 0 days” value [23] was 34%. For the same molecule, the “Recovery ratio … after 0 days” value (Feces 2, phenylboronic acid 1 mmol/L, 37° C., 0 days) was 100%, the Hb concentration [24] was 166 µg/L and the “Recovery ratio … after 0 days” value [24] was 58%. For the same molecule, the Hb concentration [25] was 136 µg/L, the “Recovery ratio … after 0 days” value [25] was 48% and the Hb concentration [26] was 116 µg/L. The “Recovery ratio … after 0 days” value [26] was 41%, the Hb concentration [27] was 283 µg/L and the “Recovery ratio … after 0 days” value [27] was 100%. For the same molecule, the Hb concentration [28] was 249 µg/L, the “Recovery ratio … after 0 days” value [28] was 88% and the Hb concentration [29] was 214 µg/L. For the same molecule, the “Recovery ratio … after 0 days” value [29] was 76%, the Hb concentration [30] was 191 µg/L and the “Recovery ratio … after 0 days” value [30] was 67%. The Hb concentration [31] was 283 µg/L, the “Recovery ratio … after 0 days” value [31] was 100% and the Hb concentration [32] was 249 µg/L. The “Recovery ratio … after 0 days” value [32] was 88%, the Hb concentration [33] was 214 µg/L and the “Recovery ratio … after 0 days” value [33] was 76%. The Hb concentration [34] was 191 µg/L, the “Recovery ratio … after 0 days” value [34] was 67% and the Hb concentration [35] was 269 µg/L. The “Recovery ratio … after 0 days” value [35] was 100%, the Hb concentration [36] was 214 µg/L and the “Recovery ratio … after 0 days” value [36] was 80%. For the same molecule, the “Recovery ratio … after 0 days” value (Feces 2, phenylboronic acid 50 mmol/L, 37° C., 14 days) was 65%, the Hb concentration [37] was 149 µg/L and the “Recovery ratio … after 0 days” value [37] was 55%. For the same molecule, the Hb concentration [38] was 250 µg/L, the “Recovery ratio … after 0 days” value [38] was 100% and the Hb concentration [39] was 139 µg/L. The “Recovery ratio … after 0 days” value [39] was 56%, the Hb concentration [40] was 80 µg/L and the “Recovery ratio … after 0 days” value [40] was 32%. The Hb concentration [41] was 36 µg/L, the “Recovery ratio … after 0 days” value [41] was 14% and the Hb concentration (Feces 3, phenylboronic acid 0.5 mmol/L, 37° C., 0 days) was 283 µg/L.
